Measurements reported in patent US20240158446A1, “CYCLIC COMPOUND HAVING SELECTIVE INHIBITORY ACTION ON KRAS OVER HRAS AND NRAS” (CHUGAI SEIYAKU KABUSHIKI KAISHA, priority 2021, published 2024).
Read-outs that look alike come from different tables or passages of the source.

Legend:
[1] = target: GDP-bound KRAS wild-type protein (Homo sapiens, UniProt P01116); test: Binding to KRAS by surface plasmon resonance (SPR), Single Cycle Kinetics; conditions: GDP-bound KRAS wild-type protein, read-out: KRAS KD
Chain of GDP-bound KRAS wild-type protein (P01116 whole entry): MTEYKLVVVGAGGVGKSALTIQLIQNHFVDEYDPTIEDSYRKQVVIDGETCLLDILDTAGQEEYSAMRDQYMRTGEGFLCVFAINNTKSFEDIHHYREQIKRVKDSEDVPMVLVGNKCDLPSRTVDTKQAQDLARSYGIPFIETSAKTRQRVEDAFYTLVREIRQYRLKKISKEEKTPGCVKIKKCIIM

[2] = target: GDP-bound NRAS wild-type protein (Homo sapiens, UniProt P01111); test: Binding to NRAS by surface plasmon resonance (SPR), Single Cycle Kinetics; conditions: for NRAS/KRAS (ratio of KD value for NRAS to KD value for KRAS): SPR, GDP-bound NRAS wild-type protein vs GDP-bound KRAS wild-type protein; for NRAS/KRAS (ratio of KD value with respect to GDP-bound NRAS wild-type protein to KD value with respect to KRAS): SPR KD ratio NRAS/KRAS, class symbols
Chain of GDP-bound NRAS wild-type protein (P01111 whole entry): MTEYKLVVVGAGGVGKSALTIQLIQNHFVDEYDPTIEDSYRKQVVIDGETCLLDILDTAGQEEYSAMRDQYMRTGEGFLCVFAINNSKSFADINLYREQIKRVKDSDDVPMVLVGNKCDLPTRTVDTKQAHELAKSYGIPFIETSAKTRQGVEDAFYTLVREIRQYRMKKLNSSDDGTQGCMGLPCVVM

[3] = target: GDP-bound HRAS wild-type protein (Homo sapiens, UniProt P01112); test: Binding to HRAS by surface plasmon resonance (SPR), Single Cycle Kinetics; conditions: for HRAS/KRAS (ratio of KD value for HRAS to KD value for KRAS): SPR, GDP-bound HRAS wild-type protein vs GDP-bound KRAS wild-type protein; for HRAS/KRAS (ratio of KD value with respect to GDP-bound HRAS wild-type protein to KD value with respect to KRAS): SPR KD ratio HRAS/KRAS, class symbols
Chain of GDP-bound HRAS wild-type protein (P01112 whole entry): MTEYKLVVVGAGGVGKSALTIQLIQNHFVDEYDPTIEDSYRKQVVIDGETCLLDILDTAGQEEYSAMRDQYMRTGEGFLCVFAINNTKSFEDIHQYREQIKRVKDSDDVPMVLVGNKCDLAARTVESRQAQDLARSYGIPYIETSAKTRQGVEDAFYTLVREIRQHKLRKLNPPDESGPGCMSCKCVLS

[4] = test system: human lung cancer strain NCI-H441;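 also: cell proliferation inhibition after four days measured by CellTiter-Glo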
[5] = SPR Single Cycle Kinetics, 1:1 binding model
[6] = SPR, Single Cycle Kinetics, 1:1 binding model

CCO[C@H](C)[C@@H]1NC(=O)[C@H](CC(C)C)N(C)C(=O)C[C@@H](C(=O)N(C)C)N(C)C(=O)[C@H](C2CCCC2)N(C)C(=O)C2(CC(C)(C)C2)NC(=O)[C@@H]2C[C@H](C)CN2C(=O)[C@H](CCc2ccc(C(F)(F)F)c(OC)c2)NC(=O)CN(C)C(=O)[C@H](Cc2ccc(C)cc2)N2CC/C=C\C[C@@H](C2=O)N(C)C(=O)[C@@H]2CCCN2C1=O [PP2418]
Kd ([1]; SPR, Single Cycle Kinetics): 0.97 nM
NRAS/KRAS (ratio of KD value for NRAS to KD value for KRAS) [2]: A (a compound having 10 or more and less than 20 is denoted as A)
HRAS/KRAS (ratio of KD value for HRAS to KD value for KRAS) [3]: B (a compound having 3 or more and less than 10 is denoted as B)
IC50 [4]: 132 nM

CCOC[C@H]1C(=O)N[C@@H]([C@@H](C)CC)C(=O)N(C)CC(=O)N(C)[C@H]2C/C=C\CCN(C2=O)[C@@H](Cc2ccc(C(F)(F)F)cc2)C(=O)N(C)CC(=O)N[C@@H](CCc2cc(F)c(C(F)(F)F)c(F)c2)C(=O)N2C[C@H](OCC)C[C@H]2C(=O)NC2(CC(C)(C)C2)C(=O)N(C)[C@@H](CC2CCC2)C(=O)N(C)[C@H](C(=O)N(C)C)CC(=O)N1C [PP2763]
Kd [1, 5]: 0.86 nM
NRAS/KRAS (ratio of KD value with respect to GDP-bound NRAS wild-type protein to KD value with respect to KRAS) [2]: A (a compound having 10 or more and less than 20 is denoted as A)
HRAS/KRAS (ratio of KD value with respect to GDP-bound HRAS wild-type protein to KD value with respect to KRAS) [3]: A (a compound having 10 or more and less than 20 is denoted as A)
IC50 [4]: 71.9 nM

CCO[C@@H]1C[C@H]2C(=O)NC3(CCCC3)C(=O)N(C)[C@@H](C3CCCC3)C(=O)N(C)[C@H](C(=O)N(C)C)CC(=O)N(C)[C@@H](CC)C(=O)N[C@@H]([C@@H](C)CC)C(=O)N(C)CC(=O)N(C)[C@H]3C[C@@H](C)[C@@H](C)CN(C3=O)[C@@H](Cc3ccc(C(F)(F)F)cc3)C(=O)N(C)CC(=O)N[C@@H](CCc3ccc(C(F)(F)F)c(Cl)c3)C(=O)N2C1 [PP1358]
Kd [1, 6]: 0.03 nM
NRAS/KRAS (ratio of KD value for NRAS to KD value for KRAS) ([2]; KD ratio class): A (a compound having 10 or more and less than 20 is denoted as A)
HRAS/KRAS (ratio of KD value for HRAS to KD value for KRAS) ([3]; KD ratio class): B (a compound having 3 or more and less than 10 is denoted as B)
IC50 [4]: 4.1 nM

CCO[C@@H]1C[C@H]2C(=O)NC3(CCC3)C(=O)N(C)[C@@H](C(CC)CC)C(=O)N(C)[C@H](C(=O)N(C)C)CC(=O)N(C)[C@@H](CC(C)C)C(=O)N[C@@H]([C@@H](C)CC)C(=O)N(C)CC(=O)N(C)[C@H]3C/C=C\CCN(C3=O)[C@@H](Cc3ccc(C(F)(F)F)cc3)C(=O)N(C)CC(=O)N[C@@H](CCc3ccc4sccc4c3)C(=O)N2C1 [PP1225]
Kd [1, 6]: 1.1 nM
NRAS/KRAS (ratio of KD value for NRAS to KD value for KRAS) ([2]; KD ratio class): AA (a compound having 20 or more is denoted as AA)
HRAS/KRAS (ratio of KD value for HRAS to KD value for KRAS) ([3]; KD ratio class): A (a compound having 10 or more and less than 20 is denoted as A)
IC50 [4]: 92.5 nM

CCC[C@H]1C(=O)N[C@@H](CC(C)C)C(=O)N2C[C@@H](OC)C[C@H]2C(=O)N(C)[C@H]2C/C=C\CCN(C2=O)[C@@H](Cc2ccc(C)cc2)C(=O)N(C)CC(=O)N[C@@H](CCc2ccc(C(F)(F)F)c(OC)c2)C(=O)N2C[C@H](OCC)C[C@H]2C(=O)NC2(CC(C)(C)C2)C(=O)N(C)[C@@H](C2CCCC2)C(=O)N(C)[C@H](C(=O)N(C)C)CC(=O)N1C [PP2554]
Kd [1, 5]: 5.6 nM
NRAS/KRAS (ratio of KD value with respect to GDP-bound NRAS wild-type protein to KD value with respect to KRAS) [2]: A (a compound having 10 or more and less than 20 is denoted as A)
HRAS/KRAS (ratio of KD value with respect to GDP-bound HRAS wild-type protein to KD value with respect to KRAS) [3]: B (a compound having 3 or more and less than 10 is denoted as B)
IC50 [4]: 271 nM

CCC[C@H]1C(=O)N[C@@H](CC(C)C)C(=O)N(CCOC)CC(=O)N(C)[C@H]2C/C=C\CCN(C2=O)[C@@H](Cc2ccc(C)cc2)C(=O)N(C)CC(=O)N[C@@H](CCc2ccc(C(F)(F)F)c(OC)c2)C(=O)N2C[C@H](OCC)C[C@H]2C(=O)NC2(CC(C)(C)C2)C(=O)N(C)[C@@H](C2CCCC2)C(=O)N(C)[C@H](C(=O)N(C)C)CC(=O)N1C [PP2522]
Kd [1, 5]: 3.2 nM
NRAS/KRAS (ratio of KD value with respect to GDP-bound NRAS wild-type protein to KD value with respect to KRAS) [2]: B (a compound having 3 or more and less than 10 is denoted as B)
HRAS/KRAS (ratio of KD value with respect to GDP-bound HRAS wild-type protein to KD value with respect to KRAS) [3]: B (a compound having 3 or more and less than 10 is denoted as B)
IC50 [4]: 113 nM
